Results on five compounds are retold here after patent US6268381A, “Taxane derivatives” (Kabushiki Kaisha Yakult Honsha, priority 1997, dated 2001).

≈ marks a conversion by molar mass, not a printed value.

One data set relates to KB cells. Description: Growth inhibitory activity against KB cells (Test 2, XTT assay). The format is cell-based, human. As to conditions: for GI50: Homo sapiens, 72 h, 3 days culture; for Activity ratio: relative to Taxol (1.00). On the procedure:
Growth Inhibitory Activity of Taxane Derivatives (1)
As KB cells derived from a human mouth cancer, those purchased from Dainippon Pharmaceutical Co., Ltd. and stored in a lyophilized from at the Research Institute of that company was used. In Dulbecco's modified Eargle's medium containing 10% fetal bovine serum (product of NISSUI PHARMACEUTICAL CO., LTD.), the KB cells were cultured and maintained under the conditions of 5%, CO2 -ari and 37° C.
Each compound was used by dissolving it in DMSO at a concentration of 10 mg/mL.
On Day-1, cells which were in a logarithmic growth phase were inoculated at 2,000 cells/100 μl/well on 96-well microtiter plates (Falcon #3072) by using a phenol-red-free culture medium with 10% fetal bovine serum contained therein (Dulbecco's modified Eargle's medium (Sigma)), and were cultured overnight. On Day 0, the compounds each of which had been diluted to 0.03 to 10,000 ng/mL with the same culture medium were added in 100 μl aliquots to the individual wells, and the cells were cultured for 3 days. Three wells were used per each drug concentration. Each plate was provided with three blank wells containing only the culture medium and also with eight wells as a drug-untreated control.
Upon use, XTT (Sigma) was dissolved at a concentration of 1 mg/mL in each culture medium which was free of serum. Phenodin methosulfate (Sigma) dissolved at a concentration of 5 mM in PBS was added to the resulting solution at a volume ratio of 1/200. To each well, the solution so prepared was added in an amount of 50 μl per well. Subsequent to culture for 4 hours, OD was measured at 450 nm by ELISA.
Calculation of 50% Growth Inhibitory Concentration (GI50)
GI50 was calculated by interpolation from a concentration-growth inhibition rate (GIR) curve. GIR was determined in accordance with the following formula: [formula]
In general terms: Tetrazolium assays rely on reduction of a dye to a coloured formazan, in cell work by metabolically active cells.

Data set [1] is described as follows: Solubility test of water-soluble taxane derivatives (Test 1, HPLC). As to conditions: purified water + 1.05 eq. 0.1N hydrochloric acid, shaken 2 hours at room temperature. The format is physicochemical. On the procedure:
Solubilities of Novel Water-soluble Taxane Derivatives
I) Preparation of a calibration curve
Compound (1-4) was weighed in an amount of 2.3 mg, to which 2.3 mL of acetonitrile was added so that the compound was dissolved to provide a standard solution. Using a 10 μL portion of the standard solution, the test was conducted by HPLC (operation conditions 1). The peak area of Compound (1-4), which had been obtained from the chromatogram of the standard solution, was measured by automated integration. The peak area obtained as an average of three measurements was plotted against the amount (10 μg) of Compound (1-4) per 10 μL, whereby a calibration curve was prepared.
Calibration curve of Compound (1-4): Y =1.518 ×10^-5 X [X: peak area, Y: amount (μg) of Compound (1-4)] [HPLC operation conditions 1] Column: Inertsil ODS-2 (5-250), 40 deg. Mobile phase: 0.01M KH2 PO4 --CH3 CN (3:2). Flow rate: 1.0 mL/min. Detection: Ultraviolet absorption photometer (225 nm), 0.2 AUFS.
II) Solubility test of Compound (1-4):
Compound (1-4) was weighed in an amount of 3.7 mg and then suspended in 2.0 mL of purified water. To the resulting suspension, 41.3 μL (1.05 eq.) of 0.1N hydrochloric acid was added. […] From the area obtained as an average of three measurements, the solubility of the compound (1-4) was determined. […]

The test system of another data set is ovarian cancer. As to conditions: Ann. int. Med. 111, 273, 1989; cited from earlier work.
A further data set has as its system breast cancer. The conditions noted are these: Ann. int. Med. 111, 273, 1989; cited from earlier work.

For the compound `CC(=O)O[C@@]12CO[C@@H]1C[C@H](O)[C@@]1(C)C(=O)[C@H](OC(=O)N3CCC(N4CCCCC4)CC3)C3=C(C)[C@@H](OC(=O)[C@H](O)[C@@H](NC(=O)OC(C)(C)C)c4ccoc4)C[C@@](O)([C@@H](OC(=O)c4ccccc4)[C@H]21)C3(C)C` [Compound 1-1, 13-0-[3-(tert-Butoxycarbonylamino)-3-(3-furyl)-2-hydroxypropionyl]-10-0-(4-piperidinopiperidinocarbonyl)-10-deacetylbaccatin III], in the data set on KB cells, the GI50 (commonly the concentration giving 50% growth inhibition) was 0.48 ng/mL (≈ 0.484 nM) and the Activity ratio was determined as 2.70.
Take `CC(=O)O[C@@]12CO[C@@H]1C[C@H](O)[C@@]1(C)C(=O)[C@H](OC(=O)N3CCN(C)CC3)C3=C(C)[C@@H](OC(=O)[C@H](O)[C@@H](NC(=O)OC(C)(C)C)c4ccoc4)C[C@@](O)([C@@H](OC(=O)c4ccccc4)[C@H]21)C3(C)C` [Compound 1-2]: in the data set with KB cells, it took 0.28 ng/mL (≈ 0.303 nM) to inhibit growth by half (GI50) and the Activity ratio is reported as 4.64.
On to `CCCN(CCC)C1CCN(C(=O)O[C@H]2C(=O)[C@@]3(C)[C@H]([C@H](OC(=O)c4ccccc4)[C@]4(O)C[C@H](OC(=O)[C@H](O)[C@@H](NC(=O)OC(C)(C)C)c5ccco5)C(C)=C2C4(C)C)[C@]2(OC(C)=O)CO[C@@H]2C[C@@H]3O)CC1` [Compound 1-3, 13-0-[3-(tert-Butoxycarbonylamino)-3-(2-furyl)-2-hydroxypropionyl]-10-0-(4-dipropylaminopiperidinocarbonyl)-10-deacetylbaccatin III], for which, in the data set with KB cells, it took 0.43 ng/mL (≈ 0.427 nM) to inhibit growth by half (GI50) and the Activity ratio worked out at 3.02.
Turning to `CCN1CCN(C(=O)O[C@H]2C(=O)[C@@]3(C)[C@H]([C@H](OC(=O)c4ccccc4)[C@]4(O)C[C@H](OC(=O)[C@H](O)[C@@H](NC(=O)OC(C)(C)C)c5ccco5)C(C)=C2C4(C)C)[C@]2(OC(C)=O)CO[C@@H]2C[C@@H]3O)CC1` [Compound 1-4, 13-0-[3-(tert-Butoxycarbonylamino)-3-(2-furyl)-2-hydroxypropionyl]-10-0-(4-ethylpipezinocarbonyl)-10-deacetylbaccatin III], the Amount dissolved in data set [1] (average of three measurements) came to 7.87 μg/5 μL. In addition, the solubility (in general, how much of the substance goes into solution per volume) at 2 h in data set [1] (water + 0.1n hcl) turned out to be 1570 µg/mL. In the data set with KB cells, the concentration for 50% growth inhibition (GI50) stood at 0.23 ng/mL (≈ 0.245 nM) and the Activity ratio was found to be 5.65.
Regarding `CC(=O)O[C@H]1C(=O)[C@@]2(C)[C@H]([C@H](OC(=O)c3ccccc3)[C@]3(O)C[C@H](OC(=O)[C@H](O)[C@@H](NC(=O)c4ccccc4)c4ccccc4)C(C)=C1C3(C)C)[C@]1(OC(C)=O)CO[C@@H]1C[C@@H]2O` [Taxol], in the data set on KB cells, the concentration for 50% growth inhibition (GI50) stood at 1.3 ng/mL (≈ 1.52 nM). Further, the “Efficacy against ovarian cancer” value in the data set on ovarian cancer is listed as “high efficacy”. The “Efficacy against breast cancer” value with breast cancer is recorded as “high efficacy”.
